{
  "source": "patent EP0394112A2",
  "about": "“Use of dipyrido(4,3-b)(3,4-f) indoles for the preparation of medicaments for the treatment of AIDS” (INSTITUT NATIONAL DE LA SANTE ET DE LA RECHERCHE MEDICALE …, priority 1989, dated 1990)",
  "key": {"[1]": {"biological_target": "T1, transcriptase inverse du virus HIV 1 (Human immunodeficiency virus type 1 group M subtype B, UniProt P04585)", "T1 construct": "transcriptase inverse du virus HIV 1", "assay": "Reverse transcriptase assay (direct enzyme inhibition, synthetic primer, 3H-labelled substrate)", "format": "biochemical", "details": "figure 1", "description": "Le trichlorhydrate de BD 40 (sel ci-après appelé \"BD 40\"), obtenu par réaction de la base BD 40 en phase aqueuse avec une solution aqueuse d'acide chlorhydrique, a été testé dans un premier temps en tant qu'inhibiteur direct sur l'activité enzymatique de la transcriptase inverse du virus HIV 1.\nL'activité enzymatique a été testée en utilisant une amorce synthétique et un substrat radiomarqué au H³ \"in vitro\" en présence de différentes doses du BD 40. La quantité de matériel radiomarqué précipité, exprimée en coups par minute, est proportionnelle à l'activité de la transcriptase inverse.\nLes résultats obtenus figurent sur le graphe de la figure 1, sur laquelle on a porté en ordonnées, la quantité de matériel radiomarqué en coups par minute (RT en cpm) et en abscisses les quantités de BD 40 testées."}, "virus HIV 1 [2]": {"test_system": "virus HIV 1", "assay": "Infectivity test on PHA-stimulated peripheral lymphocytes (viral production followed by RT activity)", "format": "cell-based", "details": "12,5 ng/ml", "description": "Les lymphocytes obtenus après stimulation à la PHA (Phytohémagglutinine) de cellules issues d'une cytaphérèse, ont été infectés par une dilution appropriée de virus HIV 1 afin d'obtenir un pic de production virale aux environs du quinzième jour après infection. Différentes doses du BD 40 ont été ajoutées au milieu de culture au moment de l'infection et pendant toute la culture afin de déterminer les doses toxiques et protectrices.\nPour déterminer le mécanisme d'action du composé, celui-ci a été ajouté à la culture soit pendant une période de préincubation des cellules avant infection, soit pendant toute la période de culture suivant l'infection.\nLe suivi de la production virale des lymphocytes a été réalisé par dosage de l'activité de la transcriptase inverse dans la culture tous les 3 ou 4 jours.\nLes résultats obtenus, avec le BD 40 à la concentration de 12,5 ng/ml, figurent sur les différentes courbes de la figure 2 qui expriment l'activité de la transcriptase inverse (RT en ordonnées) en fonction du temps en jours. • Fig. 2a : BD 40 ajouté pendant la période de préincubation des cellules avant infection. • Fig. 2b : BD 40 ajouté pendant la culture qui suit l'infection. • Fig. 2c : BD 40 ajouté à la culture, uniquement après l'infection. • Fig. 2d : Pas de BD 40. Contrôle HIV 1."}, "virus HIV": {"test_system": "virus HIV", "format": "cell-based, virus HIV 1", "details": "for production virale des lymphocytes périphériques infectés: added at the time of infection, figure 3", "description": "Ce test a été réalisé comme suit.\nLes lymphocytes humains ont été isolés sur gradient de Ficoll à partir du sang périphérique d'un donneur séronégatif. Préalablement au traitement, ils ont été stimulés par la phytohémagglutinine p (PHA-p) (Difco) pendant 3 jours. Ils sont ensuite maintenus en culture dans un milieu RPMI sans glutamine (GIBCO, Réf. 041.01870M, contenant 10 % de sérum de veau fétal (FLOW, Réf. 29.101.711), 1 % de glutamine (GIBCO, Réf. 043.05030H), 1 % d'une solution d'antibiotiques (GIBCO, PSN, Réf. 043.05640H), 10 % d'une solution d'interleukine 2 (BIOTEST, Réf. 81.1020), et […] de polybrène (SIGMA, Réf. 36F.3686 P. 4515).\nDu trichlorhydrate de BD 40 (sel ci-après appelé BD 40) est ajouté aux doses non toxiques de 3,2 jusqu'à 25 ng/ml en même temps que l'infection virale. La production du virus dans le surnageant est mesurée par l'activité réverse transcriptase après concentration des cellules infectées par centrifugation.\nLes résultats obtenus figurent sur les courbes de la figure 3 qui donne l'activité de transcriptase inverse (RT en ordonnées) en fonction du temps pour des quantités données de BD 40."}, "virus HIV 1 [3]": {"test_system": "virus HIV 1", "format": "cell-based", "description": "Les macrophages ont été isolés à partir du sang périphérique par adhérence. On les a infectés par du virus HIV 1 (de 5000 à 25000 cpm (RT en cpm par ml)). 3 à 7 jours après, les macrophages ont été éclatés par congélation/décongélation et le virus a été révélé par une coculture avec une lignée lymphoblastoïde (CEM ou lymphocytes du sang périphérique).\nDifférentes doses de trichlorhydrate de BD 40 (ci-après BD 40) ont été testées, le produit étant ajouté au milieu de culture au moment de l'infection."}, "[4]": {"biological_target": "T2, réverse transcriptase du virus HIV (Human immunodeficiency virus type 1 group M subtype B, UniProt P04585)", "T2 construct": "mesures de l'activité réverse transcriptase (RT) dans les cellules sanguines; from tissue; host or cells: blood cells of AIDS patients treated with BD 40", "assay": "Clinical trial: reverse transcriptase activity in blood cells of treated AIDS patients", "format": "in vivo", "method": "Lors d'un essai clinique chez 12 malades souffrant d'un SIDA avéré avec sarcome de Kaposi traités par des injections de trichlorhydrate de BD 40 en perfusion à des doses comprises entre 50 et 300 mg/m²/jour par cures de 3 jours consécutifs à intervalles de 3 semaines, des mesures de l'activité réverse transcriptase (RT) dans les cellules sanguines ont été pratiquées avant administration et aux 4e et 15e jours après le début de chaque cure.\nLa technique de mesure est la même que celle utilisée dans les tests II et III ci-dessus. Les résultats obtenus sont les suivants : - 8 cures sont évaluables à l'égard des critères adoptés, c'est-à-dire dans la mesure où l'activité réverse transcriptase a été mesurable pour le malade considéré et où sa valeur au jour 4 de la cure est encadrée par des valeurs connues au jour 15 de la cure précédente et au jour 15 de la cure considérée; - sur ces 8 cures évaluables, dans 7 cas la valeur au jour 4 est inférieure aux valeurs qui l'encadrent indiquant l'existence d'un inhibition nette de la réverse transcriptase; - sur ces 7 cas, dans 4 d'entre eux l'activité réverse transcriptase est ramenée à 0 (ou à une valeur négligeable, non significativement différente de 0); - sur ces 7 cas, si l'on normalise les valeurs obtenues en les exprimant en % de la valeur la plus élevée mesurée pour le malade considéré, les moyennes obtenues sont les suivantes : - RT au J15 de la cure précédente : 72,3 - RT au J4 de la […] : 9,7 - RT au J15 de la cure considérée : 62,4 l'inhibition est donc très évidente au 4e jour de la cure; - ces 7 cas sont obtenus aux doses suivantes (en mg/m2/administration) 2 fois à 50, 3 fois à 200, 1 fois à 250 et 1 fois à 300."}, "[5]": {"test_system": "lignée cellulaire murine D55", "details": "24 h treatment, D55 cells; read-out: concentrations affecting viabilité et morphologie des cellules de manière irréversible; cited from earlier work"}, "[6]": {"test_system": "fibroblastes murins NIH - 3T3", "details": "24 h treatment, NIH - 3T3 fibroblasts; read-out: concentrations affecting viabilité et morphologie des cellules de manière irréversible; cited from earlier work"}, "[7]": {"details": "mean of 7 cases, normalised values"}},
  "note": "Like-named read-outs stand apart in the source and are kept apart here.",
  "data": [
    {"smiles": "CCN(CC)CCCNc1nccc2c(C)c3[nH]c4ccncc4c3cc12", "note": "[BD 40]", "values": [
      {"measurement": "activité de la transcriptase inverse du virus HIV", "setting": "[1]; BD 40 concentrations 1 mg/ml to 50 µg/ml", "result": "totalement inhibée"},
      {"measurement": "activité de l'enzyme", "setting": "[1]; from BD 40 concentration 5 µg/ml", "result": "du même niveau qu'en l'absence d'inhibiteur"},
      {"measurement": "production virale de lymphocytes infectés", "setting": "virus HIV 1 [2]; added to the culture only after infection (Fig. 2c)", "result": "un pic de production virale qui reste d'un niveau plus faible que le pic obtenu en l'absence d'inhibiteur"},
      {"measurement": "production virale de lymphocytes infectés", "setting": "virus HIV 1 [2]; present also during the culture after infection (Fig. 2b)", "result": "Le même résultat"},
      {"measurement": "production virale de lymphocytes infectés", "setting": "virus HIV 1 [2]; present during 1 h preincubation before infection (Fig. 2a)", "result": "inhiber totalement la production virale"},
      {"measurement": "toxicity of doses for the lymphocyte culture", "setting": "virus HIV", "result": "non toxiques"},
      {"measurement": "production virale des lymphocytes périphériques infectés", "setting": "virus HIV; 25 ng/ml to 6,25 ng/ml", "result": "inhibition très importante"},
      {"measurement": "production virale des lymphocytes périphériques infectés", "setting": "virus HIV; 3,12 ng/ml", "result": "un pic de production virale apparait d'un niveau inférieur à celui obtenu en l'absence d'inhibiteur"},
      {"measurement": "virus produit", "setting": "virus HIV; highest non-toxic doses, up to day 42", "result": "absence totale de virus produit jusqu'au jour 42"},
      {"measurement": "toxicity of doses for the macrophage culture", "setting": "virus HIV 1 [3]", "result": "non toxiques"},
      {"measurement": "retard d'apparition du virus", "setting": "virus HIV 1 [3]; 10 and 15 ng/ml, added at the time of infection", "result": 2, "unit": "jours"},
      {"measurement": "réplication du virus", "setting": "virus HIV 1 [3]; macrophages treated with BD 40, RT activity after coculture", "result": "inhibition partielle"},
      {"measurement": "clinical tolerance of the doses", "setting": "[4]; 50, 200, 250 and 300 mg/m2/administration, patients", "result": "cliniquement parfaitement tolérées"},
      {"measurement": "RT au J4 de la cure précédente", "setting": "[4]; [7]", "result": "9,7 % de la valeur la plus élevée mesurée pour le malade considéré"},
      {"measurement": "RT au J15 de la cure considérée", "setting": "[4]; [7]", "result": "62,4 % de la valeur la plus élevée mesurée pour le malade considéré"},
      {"measurement": "RT au J15 de la cure précédente", "setting": "[4]; [7]", "result": "72,3 % de la valeur la plus élevée mesurée pour le malade considéré"},
      {"measurement": "cas où la valeur au jour 4 est inférieure aux valeurs qui l'encadrent (inhibition nette de la réverse transcriptase)", "setting": "[4]; out of 8 evaluable courses, patients with AIDS and Kaposi sarcoma, infusion 50-300 mg/m²/jour, 3-day courses every 3 weeks", "result": 7, "unit": "cas"},
      {"measurement": "cas où l'activité réverse transcriptase est ramenée à 0 (ou à une valeur négligeable)", "setting": "[4]; out of the 7 cases with inhibition", "result": 4},
      {"measurement": "MCC", "setting": "[5]", "result": "≥ 100", "unit": "nM"},
      {"measurement": "MCC", "setting": "[6]", "result": "≥ 100", "unit": "nM"}
    ]}
  ]
}
